{
  "source": "paper PMC10376999",
  "about": "(Biomedicines, 2023)",
  "key": {"[1]": {"system": "RPTEC/TERT1 artificial tubular barrier", "settings": "human", "method": "(§1) Experiments were performed using an immortalized human renal proximal tubular epithelial cell line (RPTEC/TERT1) [21], which was supplied by Evercyte GmbH (Vienna, Austria). […] To bring these cells into culture 0.6 × 10^5 cells were seeded onto 24-well plates Thincert Transwell inserts (0.33 cm^2, 0.4 µm pore size; Greiner Bio-one) and further cultured in ProxUp Basal Medium (Evercyte, Austria). The cells were cultured on Thincert inserts (Greiner Bio-one, Frickenhausen, Germany) for at least 8 days to ensure the formation of a confluent cell monolayer. The cell layer integrity was confirmed by measuring the trans-epithelial electrical resistance (TEER) with an epithelial volt-ohm-meter (EVOM, Millicel, Darmstadt, Germany). Transwell inserts were used for transport experiments when TEER values exceeded 150 Ω × cm^2.\n(§2) The transport of R123 and HSA-647 across the tubular barrier was carried out under static and dynamic cultivation conditions. The static conditions were carried out by placing the Transwell^TM inserts on a well plate, with no pressure or flow applied.\n(§3) Fluorescence intensity at the beginning and end of the experiments was measured using a microplate reader (Tecan Infinite Pro, Tecan Group, Switzerland), and a miniaturized fluorescence reader (Fluo Sens Integrated, Qiagen, Hilden, Germany) was used for online monitoring. […] Using the calibration curves, the fluorescent intensity (FU) results were converted to concentration (µM).\n(§4) During the transport assays, the decrease in the fluorescence intensity in the artificial microfluidic channels mimicking the peritubular capillary structures (in the well, see Figure 2; compartment 7) was measured constantly. R123 (2 μM) and HSA-647 (0.6 µM) were added to the cell culture medium and to the microfluidic channel (Figure 2), and a Transwell insert populated with cells (compartment 4 in Figure 2).\n(§5) The whole system was then placed on the Qiagen fluorescence meter in such a way that only the fluorescence signal of the cell culture medium in the channels (compartment 1 in Figure 2) was measured every 120 s for maximum 48 h. Cell-free Transwell^TM inserts were used as a control. Transport assay experiments for each condition were performed and measured in triplicates."}, "[2]": {"system": "MDR1", "settings": "cited from earlier work"}, "[3]": {"system": "OAT1", "set-up": "method as in PMID 23140242, PMID 22470447", "settings": "OAT1-mediated transport, Michaelis–Menten model; cited from earlier work"}, "[4]": {"molecular_target": "MDR1 (Homo sapiens, UniProt P08183)", "sequence (P08183 whole entry)": "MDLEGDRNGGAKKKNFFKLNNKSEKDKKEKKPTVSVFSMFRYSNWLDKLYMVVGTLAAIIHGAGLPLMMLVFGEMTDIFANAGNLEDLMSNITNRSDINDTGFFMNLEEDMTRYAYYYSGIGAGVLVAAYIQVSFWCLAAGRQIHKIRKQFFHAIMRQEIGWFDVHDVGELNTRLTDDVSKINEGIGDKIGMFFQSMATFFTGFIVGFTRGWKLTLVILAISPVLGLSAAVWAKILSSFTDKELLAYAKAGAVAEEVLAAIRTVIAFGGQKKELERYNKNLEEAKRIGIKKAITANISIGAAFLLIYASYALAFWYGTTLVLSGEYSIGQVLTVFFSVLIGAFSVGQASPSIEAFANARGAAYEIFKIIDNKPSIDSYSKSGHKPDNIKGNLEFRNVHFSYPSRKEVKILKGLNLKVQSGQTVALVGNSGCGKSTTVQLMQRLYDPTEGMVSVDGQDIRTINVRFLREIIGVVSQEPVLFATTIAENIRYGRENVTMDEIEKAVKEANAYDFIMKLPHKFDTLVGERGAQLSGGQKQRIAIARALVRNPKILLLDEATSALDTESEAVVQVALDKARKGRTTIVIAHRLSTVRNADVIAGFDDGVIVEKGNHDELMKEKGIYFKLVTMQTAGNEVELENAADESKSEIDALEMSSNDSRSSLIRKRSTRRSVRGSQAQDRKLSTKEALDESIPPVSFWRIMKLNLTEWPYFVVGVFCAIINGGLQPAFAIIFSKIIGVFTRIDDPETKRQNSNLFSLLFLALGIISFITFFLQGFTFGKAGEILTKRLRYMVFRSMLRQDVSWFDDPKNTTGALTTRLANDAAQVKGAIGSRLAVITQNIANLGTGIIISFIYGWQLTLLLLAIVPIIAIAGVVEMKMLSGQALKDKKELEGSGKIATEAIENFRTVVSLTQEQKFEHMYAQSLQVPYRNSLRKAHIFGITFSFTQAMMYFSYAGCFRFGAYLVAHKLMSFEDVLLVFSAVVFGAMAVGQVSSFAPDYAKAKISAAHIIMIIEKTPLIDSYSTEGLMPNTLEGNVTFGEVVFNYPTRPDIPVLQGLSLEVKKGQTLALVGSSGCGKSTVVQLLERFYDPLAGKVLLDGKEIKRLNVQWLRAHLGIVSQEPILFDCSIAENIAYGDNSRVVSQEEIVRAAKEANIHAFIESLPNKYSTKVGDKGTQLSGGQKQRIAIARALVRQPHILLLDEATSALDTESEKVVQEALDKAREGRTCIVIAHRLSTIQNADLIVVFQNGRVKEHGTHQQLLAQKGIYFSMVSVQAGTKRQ", "test": "Kinetic characterization (Hill fit) of MDR1-mediated R123 transport above the artificial tubular barrier", "from_the_text": "(3) V=Vmax[S]^n/Km^n+[S]^n\n(§6) In this equation, V is the substrate transport velocity in static conditions, [S] is the substrate (R123) concentration, Vmax is the maximum velocity of R123 transport, Km is Michaelis–Menten constant, and n is the Hill slope or degree, which usually explains the cooperative behavior in substance transport. It should be noted that, in this definition, Km = [S] when V = 0.5 Vmax.\n(§7) It is assumed that when the inhibitor is present, any R123 molecule that passed through the membrane passed by means of passive transport [29]. […] (R123 concentration) curve was plotted (Figure 8) using online monitoring results, providing the R123 concentration."}, "[5]": {"system": "RPTEC/TERT1 artificial tubular barrier", "test": "Transport assay of R123 and HSA-647 across the artificial tubular barrier on Transwell inserts, static and in the microphysiological system (pressure, flow)", "settings": "for Concentration of R123 in the peritubular capillary after 48 h: start 2 µM", "method": "as §1, §2, §3, §4, §5"}, "[6]": {"system": "MDR1", "test": "Quantitative measurement of MDR1 expression by sandwich ELISA", "format": "cell-based, human", "settings": "RPTECs, tariquidar 50 µg/mL, static and dynamic conditions", "experimental": "To measure the amount of MDR1 expressed in different conditions, a sandwich enzyme-linked immunosorbent assay (ELISA) kit for MDR1 (antibodies-online, Aachen, Germany) was used. After each experiment, lysed cells were centrifuged at 5000× g for 5 min (at 4 °C); then, the supernatant was collected for ELISA [27]. For each experimental condition, three samples were prepared, with each sample measured in duplicates.\nThe amount of MDR1 expressed in the cell-based artificial proximal tubule was measured by the ELISA quantitative measurement.\nTo confirm, we performed the Student’s t-test; there is no significant difference in the mean values of MDR1 concentration in different conditions."}, "[7]": {"system": "MDR1", "set-up": "method as in PMID 28487651", "settings": "tariquidar in interaction with MDR1; read-out: KI (inhibition constant); cited from earlier work"}, "[8]": {"system": "COC(=O)c1ccccc1-c1c2ccc(=N)cc-2oc2cc(N)ccc12", "from_the_text": "(3) V=Vmax[S]^n/Km^n+[S]^n\nas §6, §7"}, "[9]": {"settings": "absence of inhibitor, static, from the literature"}},
  "note": "Where “and” joins values, the source holds several entries; their conditions need not be identical. Equal entries are not always repeated. Where two headings read alike, the source gives them in different places.",
  "data": [
    {"compound": "COC(=O)c1ccccc1-c1c2ccc(=N)cc-2oc2cc(N)ccc12", "note": "[R123, Rhodamine 123]", "values": [
      {"measurement": "Passive transport of R123, JR123,F,PT, calculated from equation", "setting": "[1]", "result": 0.026, "unit": "pmol/min"},
      {"measurement": "Passive transport of R123, JR123,P,PT, calculated from equation", "setting": "[1]", "result": 0.0102, "unit": "pmol/min"},
      {"measurement": "Passive permeability P", "setting": "[1]; 2 µM", "result": "1.5e-08", "unit": "L/min"},
      {"measurement": "Rdiffflow (effect of flow on total transport compared to static)", "setting": "[1]; 2 µM", "result": 0.0434, "unit": "pmol/min"},
      {"measurement": "Rdiffpressure (effect of pressure on total transport compared to static)", "setting": "[1]; 2 µM", "result": 0.0009, "unit": "pmol/min"},
      {"measurement": "Total transport rate of R123, JR123flow", "setting": "[1]; 2 µM", "result": 0.112, "unit": "pmol/min"},
      {"measurement": "Total transport rate of R123, JR123pressure", "setting": "[1]; 2 µM", "result": 0.069, "unit": "pmol/min"},
      {"measurement": "Total transport rate of R123, JR123static", "setting": "[1]; 2 µM", "result": 0.068, "unit": "pmol/min"},
      {"measurement": "Sieving coefficient θ", "setting": "[1]; 48 h, 2 µM", "result": 0.22},
      {"measurement": "Km", "setting": "[2]; MDR1-mediated transport, Michaelis–Menten model", "result": "17.5 ± 2.8", "unit": "µM"},
      {"measurement": "Km", "setting": "[2]; [9]", "result": "~17.5", "unit": "µM"},
      {"measurement": "Vmax", "setting": "[2]; [9]", "result": "0.0525 pmol/min and 0.0525 [22] pmol/min"},
      {"measurement": "Km", "setting": "[2]; presence of inhibitor (non-competitive, Km unchanged), static, from the literature", "result": "~17.5", "unit": "µM"},
      {"measurement": "n (Hill slope)", "setting": "[2]; presence of inhibitor, static, from the literature", "result": "2 [22, 28]"},
      {"measurement": "Km", "setting": "[3]", "result": "0.3 ± 0.1", "unit": "µM"},
      {"measurement": "Active transport rate of R123, JR123AT,flow", "setting": "[4]; 0.13 µL/s flow, total minus passive transport rate", "result": 0.048, "unit": "pmol/min"},
      {"measurement": "Active transport rate of R123, JR123AT,pressure", "setting": "[4]; 5 mbar pressure, total minus passive transport rate", "result": 0.042, "unit": "pmol/min"},
      {"measurement": "n (Hill slope)", "setting": "[4]; absence of inhibitor, static, present study", "result": 2},
      {"measurement": "V'max", "setting": "[4]; presence of tariquidar, static, calculated from Vmax/(1+[I]/KI) with literature KI = 0.32 nM (ref 32)", "result": "2.18 × 10^−7 pmol/min and 2.18 × 10^−7 (from Equation (3)) [32] pmol/min"},
      {"measurement": "V'max", "setting": "[4]; presence of tariquidar, static, from curve fitting, present study", "result": "1.25 × 10^−7 ± 3 × 10^−9 pmol/min and 1.25 × 10^−7 ± 3 × 10^−9 (from curve fitting) pmol/min"},
      {"measurement": "n (Hill slope)", "setting": "[4]; presence of tariquidar, static, present study", "result": 2},
      {"measurement": "Active transport rate of R123, JR123AT,static", "setting": "[4]; static, total minus passive transport rate", "result": 0.038, "unit": "pmol/min"},
      {"measurement": "Concentration of R123 in the peritubular capillary after 48 h", "setting": "[5]; 0.13 µL/s flow, no tariquidar", "result": 600, "unit": "nM"},
      {"measurement": "Concentration of R123 in the peritubular capillary after 48 h", "setting": "[5]; 5 mbar pressure, no tariquidar", "result": 1100, "unit": "nM"},
      {"measurement": "AVG R123 conc. In well, fluorescence endpoint after 48 hours", "setting": "[5]; flow", "result": 0.92, "unit": "µM"},
      {"measurement": "AVG R123 conc. In well, fluorescence endpoint after 48 hours", "setting": "[5]; flow inhibited", "result": 0.25, "unit": "µM"},
      {"measurement": "AVG R123 conc. In well, fluorescence endpoint after 48 hours", "setting": "[5]; pressure", "result": 0.68, "unit": "µM"},
      {"measurement": "AVG R123 conc. In well, fluorescence endpoint after 48 hours", "setting": "[5]; pressure inhibited", "result": 0.24, "unit": "µM"},
      {"measurement": "AVG R123 conc. In well, fluorescence endpoint after 48 hours", "setting": "[5]; static inhibited", "result": 0.22, "unit": "µM"},
      {"measurement": "Concentration of R123 in the peritubular capillary after 48 h", "setting": "[5]; static, no tariquidar", "result": 1500, "unit": "nM"},
      {"measurement": "Concentration of R123 in the peritubular capillary after 48 h", "setting": "[5]; static, tariquidar present", "result": 1700, "unit": "nM"}
    ]},
    {"compound": "COc1cc2c(cc1OC)CN(CCc1ccc(NC(=O)c3cc(OC)c(OC)cc3NC(=O)c3cnc4ccccc4c3)cc1)CC2", "note": "[tariquidar]", "values": [
      {"measurement": "Effect on the level of MDR1 protein (ELISA)", "setting": "[6]", "result": "did not affect the level of MDR1 protein"},
      {"measurement": "Ki", "setting": "[7]", "result": 0.32, "unit": "nM"}
    ]},
    {"compound": "MDR1 (Homo sapiens)", "values": [
      {"measurement": "Km", "setting": "[8]", "result": "17.47 ± 8", "unit": "µM"}
    ]}
  ]
}
